Our source for the Activity, LD50 and zone of inhibition values is ChEMBL document CHEMBL1155612, “Lyngbyabellin B, a toxic and antifungal secondary metabolite from the marine cyanobacterium Lyngbya majuscula” (J Nat Prod, 2000).

The source made the active and inactive calls. The rule behind the calls is not given here.

In data set [1] the test system is Candida albicans. The data set is described as follows: Antimicrobial activity against Candida albicans ATCC 14053 at 10 ug/disk by disk agar plate assay. It counts as functional, organism-based.
The test system of another data set is Pseudomonas aeruginosa. The data set is described as follows: Antimicrobial activity against Pseudomonas aeruginosa ATCC 10145 by disk agar plate assay. It counts as functional, organism-based.
For the next data set, the system named is Escherichia coli. Put plainly: Antimicrobial activity against Escherichia coli ATCC 11775 by disk agar plate assay. It is filed as functional, organism-based.
The subject of another data set is Bacillus subtilis. Put plainly: Antimicrobial activity against Bacillus subtilis ATCC 6051 by disk agar plate assay. It is filed as functional, organism-based.
The subject of another data set is Artemia. Put plainly: Toxicity against brine shrimp after 24 hrs. It counts as organism-based. The conditions noted are these: in vivo.
In data set [2] the test system is Salmonella enterica subsp. enterica. Put plainly: Antimicrobial activity against Salmonella choleraesuis subsp. choleraesuis ATCC 14028 by disk agar plate assay. It counts as functional, organism-based.
The test system of another data set is Staphylococcus aureus. The data set is described as follows: Antimicrobial activity against Staphylococcus aureus ATCC 12600 by disk agar plate assay. It is filed as functional, organism-based.
In data set [3] the test system is Candida albicans. Put plainly: Antimicrobial activity against Candida albicans ATCC 14053 at 100 ug/disk by disk agar plate assay. The conditions noted are these: read-out: IZ. It is filed as functional.

With `CC(C)[C@@H]1NC(=O)CNC(=O)[C@@H]2CSC(=N2)[C@H](C(C)(C)O)OC(=O)C(C)(C)[C@H](CCCC(C)(Cl)Cl)OC(=O)c2csc1n2` [LYNGBYABELLIN B], in the data set on Candida albicans [1], the outcome was Active. In addition, the result (in the data set with Pseudomonas aeruginosa; in the data set with Escherichia coli; in the data set with Bacillus subtilis; in data set [2]; in the data set on Staphylococcus aureus) was inactive. The LD50 with Artemia is on record as 3 ppm. In addition, the zone of inhibition at 100 µg/disc in the data set on Candida albicans [3] was 10.5 mm.
